Our source for the IC50 values is patent US20240415819A1, “MACROCYCLIC COMPOUNDS AS PROTEASOME SUBUNIT BETA TYPE-5 INHIBITORS” (Lead Discovery Center GmbH, priority 2021, published 2024).

Experiment [1] concerns the target T1, β5 subunit of the human constitutive proteasome (CPS) (Homo sapiens, UniProt P28074).
T1 construct: purchased Boston Biochem E-360
Put plainly: β5 inhibition assay, human constitutive proteasome (Suc-LLVY-AMC). Type of experiment: biochemical. Conditions: IC50 class, Suc-LLVY-AMC substrate. Here is the method:
The enzymatic activity of the β5 subunit of the human constitutive proteasome (CPS) is analyzed. In another assay, which differs from the assay of the human constitutive proteasome only in using the human immunoproteasome (IPS) the enzymatic activity of the β5 subunit of the human immunoproteasome (IPS) is analyzed. […] Inhibition is indicated as IC50 [nM] (“-”=not measured).

Experiment [2] deals with hPMBC. Put plainly: Chymotrypsin-like ProteasomeGlo assay in hPBMC. The format is cell-based. Conditions: Homo sapiens; read-out: Pglo hPBMC. The source says:
Chymotrypsin-like ProteasomeGlo assay in the B-cells isolated from PBMC's following compound addition (IC50). • 1. PBMC's will be isolated from human blood followed by B-cell isolation from the PBMC's using the Miltenyi Isolation Kit. • 2. This experiment will use the Chymotrypsin-like ProteasomeGlo read-out to generate IC50's following compound treatment. • 3. Dilute all compounds 1:100 for the assay. • 4. […] Repeat the DMSO transfer with lane 12. • 5. Lane 12 should not be seeded with any cells. Only medium! • 6. For all steps, make sure the samples and reagents remain cool! • 7. While dealing with the buffy coats, be careful to not let any exposed skin to be in direct contact with the blood.
For the initial steps and to make processing the buffy coats easier, separately process the buffy coats. • a. Cut the tube attached to the buffy coats carefully using a clean, sterile and fresh scalpel. • b. Transfer the blood into 2 individual 50 ml falcons. • c. Add an equal volume of DPBS to the blood in the falcons. • d. Add ˜20 ml of lymphocyte separating medium to two 50 ml falcons. • e. Carefully pour 15-20 ml of the blood+DPBS mix from step c. onto the lymphocyte separating medium from step d. • f. Centrifuge the falcons with the lymphocyte separating medium+blood mix at 800×g for 15 minutes using a swing-out rotor. • g. Following centrifugation, carefully remove the falcons from the centrifuge. • h. The following layers will be observed: • i. Aspirate the plasma layer off carefully without disturbing the different layers. • j. Remove the cell pellet using a pipette into two fresh 50 ml falcons. • k. Fill the falcons with the cells up to 50 ml with DPBS. • l. Centrifuge the falcons at 250×g for 10 minutes using a swing-out rotor (Brake-off). • m. Aspirate the complete DPBS off the cells without disturbing the cell pellet at the bottom of the falcon. • n. Re-suspend the cell pellet in 10 ml of 1×RBC lysis buffer. • o. Incubate the falcons at room temperature in the dark for 10 minutes. • p. After RBC lysis, centrifuge the tubes at 250×g for 10 minutes using a swing-out rotor (brake-off). • (*Note: If the cell pellet is still red or light red, repeat steps n. to p.!) • q. Re-suspend the cell pellet in DPBS up to 50 ml in the falcon. • r. Centrifuge the falcons at 250×g for 10 minutes using a swing-out rotor (Brake-off). • s. Aspirate the DPBS off the cells without disturbing the cell pellet at the bottom of the falcon. • t. Repeat the wash step as described in steps q. to s. 2× times more (total number of washes is 3×). • u. Aspirate the DPBS completely off the cell pellet after the last wash without disturbing the cell pellet. • v. Re-suspend the cell pellet in 20 ml of PBMC cell medium. • w.
• a. Remove the plates with cells from the incubator. • b. Take all the plates including the compound plate, intermediate plate and Staurosporine plate to the ECHO. • c. Click on “Open” in the ECHO software and select the protocol “QLI5_25ul_30 uM-Grenier”. • d. Follow the on-screen prompts and instructions once you click “Start” to insert the compound plate, intermediate plate and destination plates. • e. Change the final number of destination plates on the program. • f. Follow the on-screen prompts and instructions once you click “Start” to load the Staurosporine and destination plates. • g. Once all the compounds, DMSO and Staurosporine have been transferred, place the destination plates in a wet tissue box. • h. Place the destination plates back into the incubator and incubate at 37° C., 5% CO2 for 105 minutes. • i. Re-seal all the compound+Stauro diamond and intermediate plates and store in the dark. Chymotrypsin like ProteasomeGlo Assay • 1. Thaw the components of the ProteasomeGlo assay at room temperature including the ProteasomeGlo Buffer, the lyophilized Luciferin Detection Reagent and the Suc-LLVY-Glo Substrate. • 2. […]

In experiment [3] the test system is A549 (human lung carcinoma cell line). The experiment in a line: Glo assay of A549 cells (Table 3; ProteasomeGlo plating scheme). The format is cell-based. The essentials:
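IC50 values (nM) come from a cell-based chymotrypsin-like Proteasome-Glo luminescence assay. Compound exposure ran 105 min at 37° C.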

Where [4] appears, read: Homo sapiens, A549 cells, read-out: PGLo A549.

Where two headings read alike, the source gives them in different places. Some results are limits rather than exact numbers.

Consider `Cc1ccc2cc1CNC(=O)[C@H](CCc1ccccc1)NC(=O)[C@@H](NC(=O)OCc1ccccc1)CC(=O)N1CCCC(CCO2)C1` (stereo partly drawn) [Compound 7, benzyl ((9S,12S)-5^4-methyl-8,11,14-trioxo-9-phenethyl-4-oxa-7,10-diaza-1(3,1)-piperidina-5(1,3)-benzenacyclotetradecaphane-12-yl)carbamate], for which the figures for the IC50 in experiment [1], in experiment [2] and in experiment [3] (setting [4]) were < 0.1 µM, < 0.1 µM and < 100 nM, respectively.
With `Cc1ccc2cc1CNC(=O)[C@H](CCc1ccccc1)NC(=O)[C@@H](NC(=O)C(C)(C)C)CC(=O)N1CCCC(CCO2)C1` (stereo partly drawn) [Compound 27, N-((9S,12S)-5^4-methyl-8,11,14-trioxo-9-phenethyl-4-oxa-7,10-diaza-1(3,1)-piperidina-5(1,3)-benzenacyclotetradecaphane-12-yl)pivalamide], the IC50 in experiment [1] is < 0.1 µM; in experiment [3] (setting [4]) it was < 100 nM.
For `Cc1ccc2cc1CNC(=O)[C@H](CCc1ccccc1)NC(=O)[C@@H](NC(=O)CC(C)(C)C)CC(=O)N1CCCC(CCO2)C1` (stereo partly drawn) [Compound 28, 3,3-dimethyl-N-((9S,12S)-5^4-methyl-8,11,14-trioxo-9-phenethyl-4-oxa-7,10-diaza-1(3,1)-piperidina-5(1,3)-benzenacyclotetradecaphane-12-yl)butanamide], the figures for the IC50 in experiment [1], in experiment [2] and in experiment [3] (setting [4]) were < 0.1 µM, 0.1 to 0.5 µM and < 100 nM, respectively.
As to `Cc1ccc2cc1CNC(=O)[C@H](CCc1ccccc1)NC(=O)[C@@H](NC(=O)Cc1ccccc1)CC(=O)N1CCCC(CCO2)C1` (stereo partly drawn) [Compound 29, N-((9S,12S)-5^4-methyl-8,11,14-trioxo-9-phenethyl-4-oxa-7,10-diaza-1(3,1)-piperidina-5(1,3)-benzenacyclotetradecaphane-12-yl)-2-phenylacetamide], the IC50 in experiment [1] is < 0.1 µM; in experiment [3] (setting [4]) it was < 100 nM.
On to `Cc1ccc2cc1CNC(=O)C(CCc1ccccc1)NC(=O)C(NC(=O)CCc1ccccc1)CC(=O)N1CCCC(CCO2)C1` [Compound 30, N-((9S,12S)-5^4-methyl-8,11,14-trioxo-9-phenethyl-4-oxa-7,10-diaza-1(3,1)-piperidina-5(1,3)-benzenacyclotetradecaphane-12-yl)-3-phenylpropanamide], for which the IC50 is < 0.1 µM in experiment [1] and < 100 nM in experiment [3] (A549 cells, read-out: PGLo A549).
Consider `Cc1ccc2cc1CNC(=O)[C@H](CCc1ccccc1)NC(=O)[C@@H](NC(=O)c1nc3ccccc3[nH]1)CC(=O)N1CCCC(CCO2)C1` (stereo partly drawn) [Compound 31, N-((9S,12S)-5^4-methyl-8,11,14-trioxo-9-phenethyl-4-oxa-7,10-diaza-1(3,1)-piperidina-5(1,3)-benzenacyclotetradecaphane-12-yl)-1H-benzo[d] imidazole-2-carboxamide], for which the IC50 is < 0.1 µM in experiment [1] and < 100 nM in experiment [3] (setting [4]).
The like results for `Cc1ccc2cc1CNC(=O)[C@H](CCc1ccccc1)NC(=O)[C@@H](NC(=O)c1ncccn1)CC(=O)N1CCCC(CCO2)C1` (stereo partly drawn) [Compound 32, N-((9S,12S)-5^4-methyl-8,11,14-trioxo-9-phenethyl-4-oxa-7,10-diaza-1(3,1)-piperidina-5(1,3)-benzenacyclotetradecaphane-12-yl)pyrimidine-2-carboxamide] were, in that order, < 0.1 µM and < 100 nM.
The like results for `CC(=O)N[C@H]1CC(=O)N2CCCC(CCOc3ccc(C)c(c3)CNC(=O)[C@H](CCc3ccccc3)NC1=O)C2` (stereo partly drawn) [Compound 33, N-((9S,12S)-5^4-methyl-8,11,14-trioxo-9-phenethyl-4-oxa-7,10-diaza-1(3,1)-piperidina-5(1,3)-benzenacyclotetradecaphane-12-yl)acetamide] were, in that order, < 0.1 µM and < 100 nM.
For `Cc1ccc2cc1CNC(=O)[C@H](CCc1ccccc1)NC(=O)[C@@H](Nc1ncccn1)CC(=O)N1CCCC(CCO2)C1` (stereo partly drawn) [Compound 34, (9S,12S)-5^4-methyl-9-phenethyl-12-(pyrimidin-2-ylamino)-4-oxa-7,10-diaza-1(3,1)], the IC50 in experiment [1] was < 0.1 µM; in experiment [3] (Homo sapiens, A549, read-out: PGLo A549 [nM]) it was < 100 nM.
`Cc1ccc2cc1CNC(=O)[C@H](CCc1ccccc1)NC(=O)[C@@H](NC1COC1)CC(=O)N1CCCC(CCO2)C1` (stereo partly drawn) [Compound 35, (9S,12S)-5^4-methyl-12-(oxetan-3-ylamino)-9-phenethyl-4-oxa-7,10-diaza-1(3,1)-piperidina-5(1,3)-benzenacyclotetradecaphane-8,11,14-trione]: the IC50 in experiment [1] is < 0.1 µM; in experiment [3] (setting [4]), 100 to 500 nM.
For the compound `Cc1ccc2cc1CNC(=O)[C@H](CCc1ccccc1)NC(=O)[C@@H](NC(=O)OCc1ccccc1)CCCC(=O)N1CCCC3(CC(C3)O2)C1` [Compound 283, benzyl ((7S,10S)-34-methyl-6,9,14-trioxo-7-phenethyl-2-oxa-5,8-diaza-15(3,1)-piperidina-3(1,3)-benzena-1(1,3)-cyclobutanapentadecaphane-10-yl)carbamate], the values for the IC50 in experiment [1], in experiment [2] and in experiment [3] (setting [4]) were 0.5 to 1 µM, 0.5 to 1 µM and 1000 to 5000 nM, respectively.
Consider `CC(=O)N[C@H]1CCCC(=O)N(C)CCCCOc2ccc(C)c(c2)CNC(=O)[C@H](CCc2ccccc2)NC1=O` [Compound 295, N-(1^4,7-dimethyl-8,13,16-trioxo-15-phenethyl-2-oxa-7,14,17-triaza-1(1,3)-benzenacyclooctadecaphane-12-yl)acetamide], for which the values for the IC50 in experiment [1], in experiment [2] and in experiment [3] (setting [4]) were < 0.1 µM, 0.1 to 0.5 µM and 100 to 500 nM, respectively.
The like results for `CC(=O)N[C@H]1CC(=O)N(C)CCCCOc2ccc(C)c(c2)CNC(=O)[C@H](CCc2ccccc2)NC1=O` [Compound 296, N-(1^4,7-dimethyl-8,11,14-trioxo-13-phenethyl-2-oxa-7,12,15-triaza-1(1,3)-benzenacyclohexadecaphane-10-yl)acetamide] were, in that order, 0.5 to 1 µM, 0.1 to 0.5 µM and 500 to 1000 nM.
The like results for `CC(=O)N[C@H]1CCC(=O)N2CC3CC(Oc4ccc(C)c(c4)CNC(=O)[C@H](CCc4ccccc4)NC1=O)C3C2` (stereo partly shown) [Compound 299, N-(3^4-methyl-6,9,13-trioxo-7-phenethyl-2-oxa-13,5,8-triaza-1(6,3)-bicyclo[3.2.0]heptana-3(1,3)-benzenacyclotridecaphane-10-yl)acetamide] were, in that order, > 5 µM, 1 to 5 µM and > 5000 nM.
The like results for `Cc1ccc2cc1CNC(=O)[C@H](CCc1ccccc1)NC(=O)[C@@H](NC(=O)OCc1ccccc1)CC(=O)N1CCCC3(CC(C3)O2)C1` [Compound 300] were, in that order, 0.1 to 0.5 µM, 0.5 to 1 µM and 1000 to 5000 nM.
Turning to `Cc1ccc2cc1CNC(=O)[C@H](CCc1ccccc1)NC(=O)[C@@H](NC(=O)OCc1ccccc1)CCC(=O)N1CCCC3(CC(C3)O2)C1` [Compound 301, benzyl ((7S,10S)-3^4-methyl-6,9,13-trioxo-7-phenethyl-2-oxa-5,8-diaza-14(3,1)-piperidina-3(1,3)-benzena-1(1,3)-cyclobutanatetradecaphane-10-yl)carbamate], the IC50 in experiment [1] is 1 to 5 µM; in experiment [2], 1 to 5 µM; in experiment [3] (setting [4]), 1000 to 5000 nM.
